Results on 27 compounds are retold here after US9024018B2, “3-substituted-8-substituted-3H-imidazo[5,1-d][1,2,3,5]tetrazin-4-one compounds and their use” (Pharminox Limited, priority 2009, dated 2015).

Molecules are shown by their SMILES. Bounds are passed on as bounds.

For orientation: GI50 means the concentration giving 50% growth inhibition.

What all share (assay type): cell-based
One test deals with SNB19V. The test is described as follows: MTT assay for 7-day toxicity, SNB19V glioma cells (vector control, MGMT-). The conditions noted are these: Glioma cell, 168 h, 7 day MTT assay, glioma line SNB19V. The method, then:
(§1) The cell culture techniques were carried out in a Class II microbiological safety cabinet which was swabbed with 70% IMS in distilled water before each use. Glioma cells were routinely cultured in Costar tissue culture flasks in RPMI 1640 liquid medium (containing 0.3 g/L L-glutamine and 2 g/L sodium bicarbonate) supplemented with 10% heat inactivated FBS (55-59° C.) for 1 hour to denature complement proteins which would otherwise evoke a cellular immune response resulting in cell lysis, 1% non-essential amino acids, 50 μg/mL gentamicin and 400 μg/mL G418 (vector selection reagent). Colorectal and melanoma cells were maintained in RPMI 1640 supplemented with 10% FBS. MRC-5 cells were cultured in EMEM+10% FBS, 1% pen/strep, 1% non-essential amino acids, 1% HEPES (1M) and 1% sodium bicarbonate.
(§2) Cells were grown at 37° C. in a humidified incubator in an atmosphere comprising 95% air/5% CO2. Cells were sub-cultured when growth exceeded approximately 80% confluence, normally twice weekly. The medium was aspirated from the flask and approximately 0.8 mL trypsin-EDTA 1× solution added. The cells were re-incubated at 37° C. until they had visibly detached from the flask. The cells were re-suspended in 5 mL medium and 0.5-1 mL was transferred to a new flask (25 cm^2) with 7 mL culture medium. The cells were further incubated at 37° C. To minimize phenotypic drift, cells were disposed of once they had been subcultured 30 times. New batches of cells were thawed rapidly in 37° C. water bath once taken from liquid nitrogen storage and re-suspended in 10 mL of culture medium in a 25 cm^2 flask. Cells were passaged twice to allow normal growth to resume prior to use in experiments.
(§3) Most test compounds, including temozolomide, were prepared as 100 mM stock solutions in DMSO and stored at −20° C. for not more than 6 months.
(§4) MTT Assay for 7-Day Toxicity Assay
(§5) This assay was first described in Mosmann, T., 1983, “Rapid colorimetric assay for cellular growth and survival: Application to proliferation and cytotoxicity assays”, Journal of Immunological Methods, Vol. 65, Nos. 1-2, pp. 55-63.
(§6) Glioma cell lines, SNB19 and U373, both stably transfected with MGMT (i.e., SNB19M and U373M) or their respective vector controls (i.e., SNB19V and U373V); colorectal carcinoma cell lines, HCT116, HT29, and DLD1; melanoma cell line, SKMEL-28; breast cell line, MCF-7; and normal human fetal lung fibroblast cell line, MRC-5; were used at 60-80% confluence, during the logarithmic phase of growth.
(§7) Following harvesting with trypsin/EDTA, cells in suspension were gently syringed through a 23 gauge needle to obtain a near-single cell suspension. Cells were then seeded into 96-well plates at the desired density in 180 μL culture medium if only one test compound was to be added, or in 160 μL if two test compounds were to be added in combination. Cells were allowed to attach overnight by incubation at 37° C. in 95% air/5% CO2. For the 7 day assay, the cell seeding densities for the different cell lines were as follows: SNB19V, SNB19M: 650 cells/well; U373V, U373M: 650 cells/well; SNB19VR, U373VR: 650 cells/well; HCT116, DLD-1, SKMEL-28, MRC-5, MCF-7: 400 cells/well.
(§8) The two peripheral lanes of each plate were used as blank wells (cell free) and filled with 200 μL of medium in order to minimise medium evaporation from the plate. A separate time zero (T0) plate was set up alongside other plates. Serial dilutions in tissue culture medium of a 100 mM stock of test compound were prepared immediately before each assay to ten times the final concentrations required. 20 μL was added to each well (200 μL total media per well) to achieve final concentrations of 0.5 μM, 1 μM, 5 μM, 10 μM, 50 μM, 100 μM, 500 μM, and 1000 μM. A minimum of four wells received the same test compound concentration. To control wells, including those in the T0 plate, 20 μL of medium was added. […]
(Formazan colour is commonly taken as a measure of viable cells.)

A further test concerns SNB19M. Kind of test: MTT assay for 7-day toxicity, SNB19M glioma cells (stably transfected with MGMT, MGMT+). To be noted: Glioma cell, 168 h, 7 day MTT assay, glioma line SNB19M. The method, then:
as §1, §2, §3, §4, §5, §6, §7, §8

The next test deals with U373V. Kind of test: MTT assay for 7-day toxicity, U373V glioma cells (vector control, MGMT-). The conditions noted are these: Glioma cell, 168 h, 7 day MTT assay, glioma line U373V. The method, then:
as §1, §2, §3, §4, §5, §6, §7, §8

Another test has as its system U373M. Kind of test: MTT assay for 7-day toxicity, U373M glioma cells (stably transfected with MGMT, MGMT+). To be noted: 7 day MTT assay, glioma line U373M. How it is done: as §1, §2, §3, §4, §5, §6, §7, §8

On to `Cn1nnc2c(C(=O)NO)ncn2c1=O` [RR-001, N-Hydroxy-3-methyl-4-oxo-3,4-dihydroimidazo[5,1-d][1,2,3,5]tetrazine-8-carboxamide], for which the GI50 was 41 µM in the test on SNB19V and 87.1 µM in the test with SNB19M.
The like results for `Cn1nnc2c(-c3nc(-c4nccs4)cs3)ncn2c1=O` [WW-010, 8-(2,4′-Bithiazol-2′-yl)-3-methylimidazo[5,1-d][1,2,3,5]tetrazin-4(3H)-one] were, in that order, below 45 µM and below 70 µM.
Take `Cn1nnc2c(-c3nc(-c4cccs4)cs3)ncn2c1=O` [WW-011, 3-Methyl-8-(4-(thiophen-2-yl)thiazol-2-yl)imidazo[5,1-d][1,2,3,5]tetrazin-4(3H)-one]: the GI50 in the test on SNB19V was below 45 µM; in the test with SNB19M it was below 70 µM; with U373V, below 75 µM.
In the case of `Cn1nnc2c(-c3nc(-c4ccncc4)cs3)ncn2c1=O` [WW-013], the GI50 is below 70 µM in the test on SNB19M; below 75 µM in the test with U373V; below 60 µM in the test with U373M (Glioma cell, 168 h).
In the same order, the values of `COCn1nnc2c(-c3nc(C(C)(C)C)cs3)ncn2c1=O` [WW-014, 8-(4-tert-Butylthiazol-2-yl)-3-(methoxymethyl)imidazo[5,1-d][1,2,3,5]tetrazin-4(3H)-one] are below 70 µM, below 75 µM and below 60 µM.
In the same order, the values of `COCn1nnc2c(-c3nc(-c4nccs4)cs3)ncn2c1=O` [WW-015, 8-(2,4′-Bithiazol-2′-yl)-3-(methoxymethyl)imidazo[5,1-d][1,2,3,5]tetrazin-4(3H)-one] are below 70 µM, below 75 µM and below 60 µM.
In the same order, the values of `COCn1nnc2c(-c3nc(-c4ccccc4)cs3)ncn2c1=O` [WW-016, 3-(Methoxymethyl)-8-(4-phenylthiazol-2-yl)imidazo[5,1-d][1,2,3,5]tetrazin-4(3H)-one] are below 70 µM, below 75 µM and below 60 µM.
`COCn1nnc2c(-c3nc(-c4ccsc4)cs3)ncn2c1=O` [WW-017]: the GI50 was below 45 µM in the test on SNB19V and below 70 µM in the test with SNB19M.
Regarding `COCn1nnc2c(-c3nc(-c4cccs4)cs3)ncn2c1=O` [WW-018, 3-(Methoxymethyl)-8-(4-(thiophen-2-yl)thiazol-2-yl)imidazo[5,1-d][1,2,3, 5]tetrazin-4(3H)-one], the GI50 with SNB19V was below 45 µM; with SNB19M it was below 70 µM.
In the same order, the values of `COCn1nnc2c(-c3nc(-c4ccncc4)cs3)ncn2c1=O` [WW-019, 3-(Methoxymethyl)-8-(4-(pyridin-4-yl)thiazol-2-yl)imidazo[5,1-d][1,2,3,5]tetrazin-4(3H)-one] are below 45 µM and below 70 µM.
As for `C#CCn1nnc2c(-c3nc(C(C)(C)C)cs3)ncn2c1=O` [WW-020, 8-(4-tert-Butylthiazol-2-yl)-3-(prop-2-ynyl)imidazo[5,1-d][1,2,3,5]tetrazin-4(3H)-one], the GI50 in the test with SNB19M is below 70 µM.
In the case of `Cn1nnc2c(-c3nc(-c4ccc(Br)cc4)cs3)ncn2c1=O` [WW-022, 8-(4-(4-Bromophenyl)thiazol-2-yl)-3-methylimidazo[5,1-d][1,2,3,5]tetrazin-4(3H)-one], the figures for the GI50 with SNB19V and in the test with SNB19M were below 45 µM and below 70 µM, respectively.
With `COCn1nnc2c(-c3nc(-c4ccc(S(C)(=O)=O)cc4)cs3)ncn2c1=O` [WW-027, 3-(Methoxymethyl)-8-(4-(4-(methylsulfonyl)phenyl)thiazol-2-yl)imidazo[5,1-d][1,2,3,5]tetrazin-4(3H)-one], the GI50 in the test on U373M was 33.1 µM; with U373M (Glioma cell, 168 h), below 60 µM.
Consider `Cn1nnc2c(-c3nnc(-c4ccccc4)o3)ncn2c1=O` [WW-041, 3-Methyl-8-(5-phenyl-1,3,4-oxadiazol-2-yl)imidazo[5,1-d][1,2,3,5]tetrazin-4(3H)-one], for which the GI50 was below 45 µM with SNB19V and below 75 µM in the test on U373V.
For the compound `C[S+]([O-])Cn1nnc2c(-c3nnc(-c4ccccc4)o3)ncn2c1=O` (centres unmarked) [WW-043, 3-(Methylsulfinylmethyl)-8-(5-phenyl-1,3,4-oxadiazol-2-yl)imidazo[5,1-d][1,2,3,5]tetrazin-4(3H)-one], the GI50 is below 45 µM with SNB19V and below 70 µM with SNB19M.
For `Cn1nnc2c(-c3nnc(Nc4ccccc4)o3)ncn2c1=O` [WW-044, 3-Methyl-8-(5-(phenylamino)-1,3,4-oxadiazol-2-yl)imidazo[5,1-d][1,2,3,5]tetrazin-4(3H)-one], the 50% growth inhibitory concentration (GI50) with U373V is below 75 µM.
With `CNc1nnc(-c2ncn3c(=O)n(C)nnc23)o1` [WW-045, 3-Methyl-8-(5-(methylamino)-1,3,4-oxadiazol-2-yl)imidazo[5,1-d][1,2,3,5]tetrazin-4(3H)-one], the concentration for 50% growth inhibition (GI50) in the test on SNB19V is below 45 µM; with U373V, below 75 µM.
Regarding `C#CCn1nnc2c(-c3nc(-c4cccs4)cn3C)ncn2c1=O` [WW-053, 8-(1-Methyl-4-(thiophen-2-yl)-1H-imidazol-2-yl)-3-(prop-2-ynyl)imidazo[5,1-d][1,2,3,5]tetrazin-4(3H)-one], the results for the GI50 with SNB19V and with SNB19M were below 45 µM and below 70 µM, respectively.
In the case of `Cn1nnc2c(-c3nc4ccccc4o3)ncn2c1=O` [WW-054, 8-(Benzo[d]oxazol-2-yl)-3-methylimidazo[5,1-d][1,2,3,5]tetrazin-4(3H)-one], the values for the 50% growth inhibitory concentration (GI50) in the test with SNB19V and with U373V were below 45 µM and below 75 µM, respectively.
On to `C[S+]([O-])Cn1nnc2c(-c3nc4ccccc4o3)ncn2c1=O` (centres unmarked) [WW-056, 8-(Benzo[d]oxazol-2-yl)-3-(methylsulfinylmethyl)imidazo[5,1-d][1,2,3,5]tetrazin-4(3H)-one], for which the 50% growth inhibitory concentration (GI50) was below 45 µM in the test on SNB19V and below 70 µM in the test on SNB19M.
As for `COCn1nnc2c(-c3nc4ccccc4o3)ncn2c1=O` [WW-057], in the test with SNB19M, the GI50 is below 70 µM.
Consider `C#CCn1nnc2c(-c3nc4ccccc4s3)ncn2c1=O` [WW-059, 8-(Benzo[d]thiazol-2-yl)-3-(prop-2-ynyl)imidazo[5,1-d][1,2,3, 5]tetrazin-4(3H)-one], for which the GI50 in the test with SNB19V is below 45 µM; with SNB19M, below 70 µM.
In the same order, the values of `COCn1nnc2c(-c3nc4ccccc4s3)ncn2c1=O` [WW-060, 8-(Benzo[d]thiazol-2-yl)-3-(methoxymethyl)imidazo[5,1-d][1,2,3,5]tetrazin-4(3H)-one] are below 45 µM and below 70 µM.
In the same order, the values of `C[S+]([O-])Cn1nnc2c(-c3nc4ccccc4s3)ncn2c1=O` (centres unmarked) [WW-061, 8-(Benzo[d]thiazol-2-yl)-3-(methylsulfinylmethyl)imidazo[5,1-d][1,2,3,5]tetrazin-4(3H)-one] are below 45 µM and below 70 µM.
The like results for `COCn1nnc2c(-c3nc4ccccc4[nH]3)ncn2c1=O` [WW-064, 8-(1H-Benzo[d]imidazol-2-yl)-3-(methoxymethyl)imidazo[5,1-d][1,2,3,5]tetrazin-4(3H)-one] were, in that order, below 45 µM and below 70 µM.
Consider `C#CCn1nnc2c(-c3nc4ccccc4n3C)ncn2c1=O` [WW-065, 8-(1-Methyl-1H-benzo[d]imidazol-2-yl)-3-(prop-2-ynyl)imidazo[5,1-d][1,2,3,5]tetrazin-4(3H)-one], for which the figures for the GI50 in the test on SNB19V and with SNB19M were below 45 µM and below 70 µM, respectively.
In the same order, the values of `Cn1nnc2c(-c3nc4ccccc4n3C)ncn2c1=O` [WW-066, 3-Methyl-8-(1-methyl-1H-benzo[d]imidazol-2-yl)imidazo[5,1-d][1,2,3,5]tetrazin-4(3H)-one] are below 45 µM and below 70 µM.
